In ChEMBL document CHEMBL1144845, “Ligand binding efficiency: trends, physical basis, and implications” (J Med Chem, 2008):

Assay: Binding affinity to carbonic anhydrase

Structure (SMILES) | Log Ki
CC(C)(C)c1ccc(C(=O)Nc2ccccc2S(N)(=O)=O)cc1 | -6.6
CN1C(CN2CCOCC2)=Cc2sc(S(N)(=O)=O)cc2S1(=O)=O | -9.7
Cc1ccc(S(N)(=O)=O)cc1 [P-TOLUENESULFONAMIDE] | -6.5
